According to patent US20090281083A1, “Combination Product” (ASTRAZENECA AB, priority 2005, published 2009):

Legend:
[1] = system: 5/6 nephrectomy rats; assay: Histological mesangial expansion score of kidneys of 5/6 nephrectomised rats; assay type: in vivo, male Wistar rats; details: 4 months into the study (3 months of drug treatment); candesartan cilexetil 5 mg/kg/day p.o., BH4 10 mg/kg/day i.p.; untreated Nx 200, sham 0
Protocol: Sixty male Wistar rats, mean weight 324±4 g, were fed a normal chow diet and allowed distilled water ad libitum. The 5/6 nephrectomy was performed according to standard protocol. In brief, the animals were anaesthetized with pentobarbital [35 mg/kg body weight (BW) intraperitoneally] and then underwent a right nephrectomy and ligature of two of the major branches of the left main renal artery (Nx) at day 0. AII the nephrectomies were carried out by one operator. The animals were then randomly assigned to one of five groups, as follows. • Group 1. SHAM (n=12); sham-operated rats. • Group 2. Nx (n=15); untreated 5/6 nephrectomy rats. • Group 3. […]
Drug administration was begun 30 days after surgery (at a point when the nephrectomised rats have already developed hypertension and renal insufficiency). […] Systolic blood pressure (SBP) was measured in trained unstressed rats 1 day before surgery and at 30, 60, 90 and 120 days, by tail cuff manometry using an automated sphygmomanometer (Narco Bio Systems, Austin, Tex., USA). […]
Kidneys were fixed in neutral buffered formalin and embedded in paraffin for light microscopic study. […] A semi-quantitative score was used to assess the severity of glomerular lesions (see Nephrol. Dial. Transplant. 8, 501-506 (1993), the disclosures of which document are hereby incorporated by reference). […]

[2] = system: 5/6 nephrectomy rats; assay: Survival of 5/6 nephrectomised rats at 4 months; assay type: in vivo, male Wistar rats; details: 4 months into the study (3 months of drug treatment); candesartan cilexetil 5 mg/kg/day p.o., BH4 10 mg/kg/day i.p.
Protocol: Sixty male Wistar rats, mean weight 324±4 g, were fed a normal chow diet and allowed distilled water ad libitum. The 5/6 nephrectomy was performed according to standard protocol. In brief, the animals were anaesthetized with pentobarbital [35 mg/kg body weight (BW) intraperitoneally] and then underwent a right nephrectomy and ligature of two of the major branches of the left main renal artery (Nx) at day 0. AII the nephrectomies were carried out by one operator. The animals were then randomly assigned to one of five groups, as follows. • Group 1. SHAM (n=12); sham-operated rats. • Group 2. Nx (n=15); untreated 5/6 nephrectomy rats. • Group 3. C (n=11); 5/6 nephrectomy rats to which candesartan cilexetil (AstraZeneca AB) was given daily at a dose of 5 mg/kg BW/day. • Group 4. BH4 (n=10); 5/6 nephrectomy rats administered BH4 (Alexis Biochemical, Lausen), 10 mg/kg BW/day intraperitoneally (see Hypertension 38, 1044-1048 (2001), the disclosures of which document are hereby incorporated by reference). • Group 5. C+B (n=12); 5/6 nephrectomy rats to which candesartan cilexetil (AstraZeneca AB) was given daily at a dose of 5 mg/kg BW/day and BH4 (Alexis Biochemical, Lausen), was administered at a dose of 10 mg/kg BW/day intraperitoneally.
Drug administration was begun 30 days after surgery (at a point when the nephrectomised rats have already developed hypertension and renal insufficiency). […] Systolic blood pressure (SBP) was measured in trained unstressed rats 1 day before surgery and at 30, 60, 90 and 120 days, by tail cuff manometry using an automated sphygmomanometer (Narco Bio Systems, Austin, Tex., USA). The Animal Care and Use Committee of Meir Hospital approved all procedures.
Due to abnormalities found by way of post-study autopsies, two rats were excluded from the analysis of the “C+B” group (i.e. Group 5).
At a point 4 months into the study (3 months of drug treatment for rats in groups 3 to 5), survival rates were as follows.

Compound	ME Score (mesangial expansion score, median value) [1]	Survival (% age) [2]	Survival (surviving rats of group) [2]
C[C@H](O)[C@H](O)[C@H]1CNc2nc(N)[nH]c(=O)c2N1 [BH4, Tetrahydrobiopterin]	158	(50%)	–
CCOc1nc2cccc(C(=O)OC(C)OC(=O)OC3CCCCC3)c2n1Cc1ccc(-c2ccccc2-c2nnn[nH]2)cc1 (centres unmarked) [candesartan cilexetil, 1-(cyclohexyloxycarbonyloxy)ethyl ester of candesartan]	82	(63.64%)	7 of 11
